Source: patent publication US9265789B2, “Targeting CLPTM1L by RNA interference for treatment and prevention of cancer” (The Medical College of Wisconsin, Inc., priority 2013, dated 2016)

What was measured:
[1] = tested on: Ras transformed 3T3 cells; experiment: Soft agar anchorage independent growth assay; assay type: cell-based, mouse
Description: (§1) NIH3T3 cells acquired within the last 6 months from ATCC were cultured in DMEM 10% FBS to 80% confluence before co-transfecting with the indicated expression and shRNA vectors using Lipofectamine LTX (Invitrogen, Carlsbad, Calif.). Cells were split, allowed to attach and placed on puromycin selection for 3 days or until mock transfected cells were dead. Cells were plated at the indicated densities and fed as needed. For whole plate staining, cells were fixed in cold methanol and stained with crystal violet. For anchorage independent growth, cell were suspended in 0.4% agarose in complete growth media and plate over 0.8% bottom agar at 10,000 cells per well (H-Ras) or 20,000 cells per well (K-Ras) of a six-well tissue culture dish in triplicate. Cells were fed twice a week over 4 weeks in culture, and colonies were stained using cell staining reagent and protocol from Millipore's Cell Transformation Detection Assay. Images of wells were captured and analyzed by Image J software to count colonies. P-values were determined using a two-tailed Student's T-Test.

[2] = tested on: phosphorylated (T308) Akt; experiment: Western blotting for phosphorylated (T308) Akt in NIH3T3 cells with K-RasV12 expression; assay type: cell-based, mouse; conditions: NIH3T3 cells expressing K-RasV12, CLPTM1L stably depleted
Description: (§2) The indicated cell lines were treated with cisplatin at the indicated concentrations on 6-well plates for 72 hours. Cells were lysed with 100 μl of 1× NP40 lysis buffer containing proteinase inhibitors, sheared 10 times with a 28 gauge needle, spun at 16,000×g for 30 minutes, normalized by protein concentration as determined by the Bradford method, and the supernatant boiled for 5 minutes. 20 μl of normalized lysate was resolved by SDS-PAGE and immunoblotting analyzed with indicated antibodies. […] Quantitation of Western analyses of three independent cultures was done using Image J software available online from the National Institutes of Heath at rsbweb.nih.gov on the World Wide Web.
(§3) NIH3T3 cells acquired within the last 6 months from ATCC were cultured in DMEM 10% FBS to 80% confluence before co-transfecting with the indicated expression and shRNA vectors using Lipofectamine LTX (Invitrogen, Carlsbad, Calif.). […] Images of wells were captured and analyzed by Image J software to count colonies. P-values were determined using a two-tailed Student's T-Test.

[3] = tested on: Spon8 mouse lung tumor cells; experiment: Viability assay (MTS) after cisplatin treatment; assay type: cell-based; conditions: 20 μM cisplatin for 48 hours; compared to vector and sh1; p=9.6E-6
Description: Cells stably expressing shRNA vectors as described above were seeded onto 12-well tissue culture dishes at equal densities of approximately 50% in triplicate. After attachment overnight followed by 48 hours of treatment with the indicated concentrations of cisplatin (Sigma, St. Louis, Mo.) dissolved in media. DMSO concentrations in culture media were kept consistent and were at or below 0.08%. Cell viability was measured by Cell Titer 96 Aqueous One Solution Cell Proliferation Assay (MTS) in triplicate. P-values were determined by one-tailed Student's T-Test.

Bcl-xL [4] = experiment: Western blotting for Bcl-xL in NIH3T3 cells with K-RasV12 expression; assay type: cell-based, mouse
Description: as §2, §3

CLPTM1L transcript = CLPTM1L transcript knockdown by RT-quantitative real-time PCR in Spon8 cells; assay type: cell-based; conditions: Spon8 mouse lung tumor cells; qPCR normalized to beta-Actin
Description: Spon8 cells were cultured in RPMI1640 plus 2% FBS (Invitrogen, Carlsbad, Calif.). Cells were transduced with lentiviral short-hairpin RNA (shRNA) vectors based on the pLKO.1 vector and designed to specifically target human CLPTM1L transcript (Sigma, St. Louis). Empty vector or vector knocking down CLPTM1L transcript were first packaged in 293T cells (Orbigen, San Diego, Calif.) by transfection with helper plasmids using Lipofectamine LTX (Invitrogen, Carlsbad, Calif.) and then transduced into Spon 8 cells with 8 μg/ml Polybrene (Sigma, St. Louis, Mo.). Media was replaced 24 hours after transduction, and cells were split 1:4 48 hours after transduction. […]
Patient matched tumor and tumor-adjacent normal RNA samples were obtained from the Tissue Procurement Core at Washington University in St. Louis under protocol approved by the Institutional Review Board at Washington University in St. Louis School of Medicine, Human Research Protection Office. […] Quantitative real-time PCR (qPCR) was conducted using the method as described previously (Chaparro, Wen et al. 2005). […] Quantitative RT-PCR assay was done using the SYBR Green PCR Master Mix (Applied Biosystems, Foster City, Calif.). […] Data were collected and analyzed with Stratagene Mx3000 software. […] Primer set efficiency and linearity was calculated, and normalization was performed in accordance with MIQE guidelines. […]

[5] = tested on: oncogenic K-Ras driven lung tumors; experiment: shRNA/K-Ras LSL-G12D/+ mouse model of lung tumorigenesis; assay type: in vivo; conditions: for inhibition of tumor number / inhibition of tumor load: vs scrambled shRNA
Description: Mouse experiments were conducted as described by DuPage et al., Nat. Protoc. 4:1064 (2009), with the following modifications. pLKO.1 empty shRNA vector was obtained from Open Biosystems (Foster City, Calif.). Short hairpin inserts were designed to specifically target transcripts. Oligos were ordered from IDT (Coralville, Iowa). Complimentary oligos were heated to 95° C., cooled to room temperature overnight and ligated into digested pLKO.1. Validated constructs used in mouse experiments had the following short-hairpin sequences:
Vectors were modified by replacing the PGK promoter and puromycin resistance orf with the CMV promoter driving expression of CRE-GFP. CMV promoter was sub-cloned from pLenti CMV GFP Puro plasmid #17448 (Addgene) and CRE-GFP was sub-cloned from pCAG:CRE-GFP plasmid #13776 (Addgene). Virus was packaged in 293T cells and functionally titered by infecting 3TZ cells (LSL-LacZ), which express LacZ upon Cre recombinase activation. Mice were anesthetized with 200 μL Avertin ([…]). 10^^4 or 10^^3 active virus particles in 50 μl of phosphate buffered saline was delivered via intratracheal intubation using a 22-gauge IV catheter under general anesthesia to 10 transgenic mice per group (LSL-K-RasG12D (Mouse Models of Human Cancers Consortium (MMHCC) Strain 01XJ6, Jackson Laboratory #008179 (B6), #008180 (129)). […] The thoracic cavity was surgically opened to expose the lungs. The trachea was cannulated with a 22G catheter and lungs were inflated with Tellyesniczky's solution (70% ethanol, 2% formaldehyde, and 5% acetic acid) at 25 cm of pressure by gravity. Lungs were fixed overnight and the solution was exchanged to 70% ethanol the next day. Lungs were photographed, lobes were separated and cleaned. Tumors were counted and measured with digital calipers. A cutoff for visible tumors of 0.2 mm diameter was used. Tumor volume was determined by the following formula: A=4/3πr^3. P-values were determined using a two-tailed Student's T-Test.

Bcl-xL [6] = experiment: Bcl-xL protein accumulation by western blot in Spon8 cells; assay type: cell-based, mouse
Description: The indicated cell lines were treated with cisplatin at the indicated concentrations on 6-well plates for 72 hours. Cells were lysed with 100 μl of 1× NP40 lysis buffer containing proteinase inhibitors, sheared 10 times with a 28 gauge needle, spun at 16,000×g for 30 minutes, normalized by protein concentration as determined by the Bradford method, and the supernatant boiled for 5 minutes. 20 μl of normalized lysate was resolved by SDS-PAGE and immunoblotting analyzed with indicated antibodies. The following antibodies were used: rabbit anti-CLPTM1L (Novus Biologicals, Littleton, Colo.), mouse anti-Actin (Santa Cruz Biotechnology, Santa Cruz, Calif.), mouse anti-Bcl2 clone 124 (Dako, Carpinteria, Calif.), rabbit anti-Bax #2774 (Cell Signaling, Boston, Mass.), mouse anti-p53 (Ab-1) (Oncogene, San Diego, Calif.), Bcl-xL-rabbit Bcl2L1 (AbCam, Cambridge, Mass.), rabbit anti-H-Ras (Novus Biologicals, Littleton, Colo.), mouse anti-K-Ras(BD Transduction Labs, Franklin, N.J.), anti-Akt(Cell Signaling, Boston, Mass.), antipAKT(Thr308)(Cell Signaling, Boston, Mass.), rabbit anti-PIK3C3 (Cell Signaling, Boston, Mass.), rabbit anti-BAD(AbCam, Cambridge, Mass.). Quantitation of Western analyses of three independent cultures was done using Image J software available online from the National Institutes of Heath at rsbweb.nih.gov on the World Wide Web.

3T3 mouse fibroblasts = experiment: Transformation assay (morphology, foci) in Ras-transfected 3T3 fibroblasts; assay type: cell-based
Description: as §1

TERT transcript = TERT transcript knockdown in Spon8 cells; assay type: cell-based; conditions: Spon8 mouse lung tumor cells
[7] = high dose group 10^4 functional particles intratracheal, 24 weeks
[8] = low dose group 10^3 particles, 28 weeks post-infection

Molecule	average colonies per well in soft agar ([1]; H-RasV12 expressing 3T3 cells, 10,000 cells per well, control 18 colonies, p<0.03)	inhibition of soft agar colony formation ([1]; K-RasV12 transformed 3T3 cells, 20,000 cells per well, control 56 colonies per well, p<0.02)	K-RasV12 induced elevation of phospho-Akt [2]	sensitivity to cisplatin-induced killing (MTS viability) [3]	K-RasV12 induced elevation of Bcl-xL (Bcl-xL [4]; NIH3T3 cells expressing K-RasV12, CLPTM1L stably depleted)	Bcl-xL expression with loss of CLPTM1L (Bcl-xL [4]; NIH3T3 mouse fibroblasts, western blotting)	knockdown of CLPTM1L at the transcript level (CLPTM1L transcript)	average tumor load [5, 7]	average tumor number [5, 7]	inhibition of tumor number ([5]; high dose group, p=0.02)	inhibition of tumor load ([5]; high dose group, p=0.03)	average tumor load [5, 8]	average tumor number [5, 8]	inhibition of tumor load ([5]; low dose group, p<0.002)	inhibition of tumor number ([5]; low dose group, p<0.004)	Bcl-xL expression upon CLPTM1L depletion (Bcl-xL [6])	transformed phenotype (foci) on stable co-transfection with H-RasV12 or K-RasV12 (3T3 mouse fibroblasts)	morphological changes with shRNA alone compared to vector controls (3T3 mouse fibroblasts; no Ras)	knockdown of TERT at the transcript level (TERT transcript)	tumor number and load compared with scrambled control ([5]; high dose group, p=0.58)
shCLP168m: shRNA targeting CLPTM1L, mature sense strand AACTGCATCCAGCCCTATCTG (SEQ ID NO: 4), pLKO.1 lentiviral vector	one	47%	ablated	increased sensitivity to cisplatin	ablated	decrease in Bcl-xL expression	80%	3.4 mm^3	46 tumors per mouse	60%	74%	0.01 mm^3	0.14 tumors	98%	98%	concurrently reduced	no transformed foci were observed	did not demonstrate morphological changes	–	–
shTERT1: lentiviral shRNA vector targeting TERT (oligos SEQ ID NO: 28/29), used as additional control (nucleic acid) sense: CCGGAAGTCTGCCGTTGCCCAAGAGCTCGAGCTCTTGGGCAACGGCAGACTTTTTTT antisense: AATTAAAAAAACTGCATCCAGCCCTATCTGCTCGAGCAGATAGGGCTGGATGCAGTT	–	–	–	–	–	–	–	10.2 mm^3	122 tumors per mouse	–	–	0.41 mm^3	5 tumors	–	–	–	–	–	50%	statistically similar to the control group
